Here are results for eight compounds from PMC12736495, “First Insights into the Anti-Inflammatory Potential of Colliguaja odorifera Molina Leaf Extracts and Their Isolated Phenolic Compounds” (Plants, 2025).

The target in assay [1] is T1, lipoxygenase Type I-B LOX A from Glycine max L. (soybean) (15-LOX) (Glycine max, UniProt P08170).
T1 construct: purchased Sigma-Aldrich (Steinheim, Germany)
T1 sequence (P08170 1-839): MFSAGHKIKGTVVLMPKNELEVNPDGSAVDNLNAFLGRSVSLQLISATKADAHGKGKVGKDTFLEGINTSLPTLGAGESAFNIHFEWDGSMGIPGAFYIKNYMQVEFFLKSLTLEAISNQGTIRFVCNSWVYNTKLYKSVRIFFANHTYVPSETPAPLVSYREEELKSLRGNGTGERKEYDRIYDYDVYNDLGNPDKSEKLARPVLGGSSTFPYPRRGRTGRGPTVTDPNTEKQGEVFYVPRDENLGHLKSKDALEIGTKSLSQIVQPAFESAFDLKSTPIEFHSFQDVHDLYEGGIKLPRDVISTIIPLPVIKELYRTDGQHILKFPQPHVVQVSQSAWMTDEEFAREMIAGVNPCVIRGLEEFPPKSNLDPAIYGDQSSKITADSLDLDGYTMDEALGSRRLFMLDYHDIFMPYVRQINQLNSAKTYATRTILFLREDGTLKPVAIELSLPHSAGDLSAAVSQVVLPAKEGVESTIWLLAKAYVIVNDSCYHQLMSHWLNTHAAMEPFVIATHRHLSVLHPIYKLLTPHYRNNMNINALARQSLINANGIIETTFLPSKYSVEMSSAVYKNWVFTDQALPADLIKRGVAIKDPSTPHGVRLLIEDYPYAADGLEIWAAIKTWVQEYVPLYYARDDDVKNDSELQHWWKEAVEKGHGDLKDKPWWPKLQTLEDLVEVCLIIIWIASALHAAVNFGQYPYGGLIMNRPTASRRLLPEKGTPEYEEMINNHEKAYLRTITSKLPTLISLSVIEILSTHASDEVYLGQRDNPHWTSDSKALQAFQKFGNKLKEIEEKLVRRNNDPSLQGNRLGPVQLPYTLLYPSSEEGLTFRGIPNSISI
The assay can be described thus: Inhibitory LOX activity assay (linoleic acid, absorbance at 234 nm). In kind it is biochemical. As to the method: The inhibitory LOX assay was conducted according to the procedure established by Lyckander and Malterud. The lipoxygenase Type I-B LOX A from Glycine max L. (soybean) (CAS: 9029-60-1) (15-LOX) with an optimal pH of 8.0–9.0 and linoleic acid used here, was obtained from Sigma-Aldrich (Steinheim, Germany).
A linoleic acid ethanol solution (268 µM) was prepared, and 50 µL of this solution was used to prepare concentrations ranging from 0.6 to 26 µg/mL for the HA-E sample, and from 0.6 to 12.9 µg/mL for the EA-E and B-E samples. Then the volume for each concentration was adjusted to 1 mL with 200 mM borate buffer (pH 8.75) containing 0.005% Tween 80. The reaction was initiated by adding 1.5 µL of Soybean 1-LOX (948 U), equivalent to 0.054 g/mL. Enzymatic activity was monitored by measuring the increase in absorbance at 234 nm for 4 min at 37 °C. Each enzyme measurement for each dilution was repeated three times. All tests were performed in triplicate. For this purpose, three samples were taken from each extract. For each of them, enzymatic activity was determined as described above. […] The percentage inhibition of enzyme activity was calculated by comparing the absorbance of the samples to that of the blank, using Equation (1), where A0 is the absorbance of the blank, and A1 is the absorbance of the sample.% inhibition = [(A0 − A1)/A0] × 100(1)
The percentage of inhibition was plotted against sample concentration to calculate the IC50 value.

Another assay has as its target T2, sPLA2 (Type V) (Homo sapiens, UniProt P39877).
T2 construct: purchased Cayman Chemical Co. (Ann Arbor, MI, USA)
T2 sequence (P39877 21-138): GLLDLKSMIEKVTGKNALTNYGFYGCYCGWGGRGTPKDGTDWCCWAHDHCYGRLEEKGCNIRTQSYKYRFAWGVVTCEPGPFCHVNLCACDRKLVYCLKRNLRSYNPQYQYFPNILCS
The assay can be described thus: Screening assay for phospholipase A2 inhibitors (Type V), Cayman kit. In kind it is biochemical. As to the method:
The phospholipase A2 inhibitory activity was determined using the phospholipase A2 (sPLA2) inhibitor detection assay kit (Type V). This kit was purchased from Cayman Chemical Co. (Ann Arbor, MI, USA). Briefly, 10 μL of C. odorifera extracts (HA-E, EA-E, B-E, and W-E, separately) were pre-incubated with 25 mM Tris-HCl buffer at pH 7.5, including 10 μL of phospholipase A2. The reaction was initiated by adding 200 μL of a 1.66 mM diheptanoyl thio-PC substrate solution. The plate was then shaken for 30 s and incubated at 25 °C for 15 min. Then, 10 µL of 5,5′-dithiobis(2-nitrobenzoic acid) (DTNB) was added to stop the enzymatic reaction and allow color development. The reaction mixture was stirred on a shaker for one minute, and the absorbance was subsequently measured at 405 nm with a spectrophotometer (METASH, UV-1500B; Shanghai Metash Instrument Co., Shanghai, China). According to the kit instructions, the sPLA2 activity was evaluated with extract concentrations ranging from 27 to 108 μg/mL. Arachidonic thioester phosphatidylcholine was used as the positive control. […] All tests were performed in triplicate.

For a further assay, the target named is Lipoxygenase. To be noted: cited from earlier work.
A further assay addresses T3, hyaluronidase (Bos taurus, UniProt Q2YDK3).
T3 sequence (Q2YDK3 36-553): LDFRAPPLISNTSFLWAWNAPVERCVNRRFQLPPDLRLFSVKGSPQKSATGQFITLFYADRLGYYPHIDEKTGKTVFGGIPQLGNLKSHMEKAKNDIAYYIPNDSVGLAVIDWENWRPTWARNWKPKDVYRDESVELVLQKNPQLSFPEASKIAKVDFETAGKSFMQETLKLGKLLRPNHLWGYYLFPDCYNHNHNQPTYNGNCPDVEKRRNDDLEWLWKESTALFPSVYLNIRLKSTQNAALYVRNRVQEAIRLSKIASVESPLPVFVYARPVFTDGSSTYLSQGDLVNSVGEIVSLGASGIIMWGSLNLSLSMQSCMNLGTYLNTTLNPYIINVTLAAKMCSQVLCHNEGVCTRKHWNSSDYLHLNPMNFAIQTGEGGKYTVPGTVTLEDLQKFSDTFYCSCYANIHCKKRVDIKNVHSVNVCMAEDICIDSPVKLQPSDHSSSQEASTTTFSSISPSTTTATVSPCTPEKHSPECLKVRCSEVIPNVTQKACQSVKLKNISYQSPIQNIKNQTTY
The assay can be described thus: Hyaluronidase inhibition assay (turbidimetric kit). The conditions noted are these: sodium hyaluronate substrate, 37 °C, mean ± s.d. The format is biochemical. The protocol:
The hyaluronidase inhibitory activity of the extracts was assessed using the Hyaluronidase Inhibitor Detection Assay Kit purchased from Sigma-Aldrich (St. Louis, MO, USA), which employs a two-step turbidimetric reaction to measure the amount of hyaluronic acid hydrolyzed by the enzyme, where the decrease in turbidity is proportional to the enzymatic activity of the sample. The assay was conducted according to the manufacturer’s instructions, with slight modifications, using 96-well plates. Briefly, a reaction mixture containing 10 μL of C. odorifera extract (HA-E, EA-E, B-E, and W-E, separately) and 20 μL of the enzyme (at a concentration of 100 U/mL in incubation buffer) was mixed in each well. After a 15 min incubation at 37 °C, a 20 μL substrate solution (0.1% sodium hyaluronate) was added to each well. The plates were incubated at 37 °C for an additional 20 min. Then, non-hydrolyzed […] was precipitated by adding 250 μL of 2.5% cetyltrimethylammonium bromide (CTAB). […] The intensity of complex formation was measured by absorbance at 630 nm in a spectrophotometer (METASH, UV-1500B). […] The percentage of hyaluronidase inhibition was calculated using Equation (2), where AS is the absorbance of the solution with the sample extract, AC is the absorbance of the solution without inhibitor, and AT is the absorbance of the enzyme.Inhibition = (AS − AC)/(AT − AC) × 100(2)

The mark [2] stands for this setting: LOX Inhibition (IC50 µg/mL), soybean 15-LOX, linoleic acid substrate, borate buffer pH 8.75, 37 °C, mean ± s.d.
Setting [3] is: anti-LOX activity, concentration for 50% inhibition in µM, same LOX IC50 expressed in µM.

“Also recorded” adds a separate entry of the source. Read-outs that look alike come from different tables or passages of the source.

In the case of `O=C(O)c1cc(O)c(O)c(O)c1` [Gallic acid], the IC50 is 2.17 µM in assay [1] (setting [2]), 2.2 µM in assay [1] (setting [3]) and 65.6 µM on sPLA2 (Type V). With `CC(C)Cc1ccc(C(C)C(=O)O)cc1` (centres unmarked) [Ibuprofen], the “Lipoxygenase inhibition IC50” value at Lipoxygenase (extract and its control) is reported as 69.7 µg/mL. Consider `O=c1cc(-c2ccccc2)oc2cc(O)c(O)c(O)c12` [Baicalein], for which the “Lipoxygenase inhibition IC50” value at Lipoxygenase (Euphorbiaceae extract and its control) is recorded as 22.4 µg/mL; at Lipoxygenase (extract and its control), 0.15 µg/mL.

As for `COc1ccc2c(c1)c(CC(=O)O)c(C)n2C(=O)c1ccc(Cl)cc1` [Indomethacin], the “Lipoxygenase inhibition IC50” value on Lipoxygenase (extract and its control) is listed as 7.9 µg/mL. As to `COC(=O)c1cc(O)c(O)c(O)c1` [Methyl gallate], the IC50 in assay [1] (setting [2]) is 330 µM. On to `O=C(O)C1=C[C@@H](O)[C@@H](O)[C@H](O)C1` [Shikimic acid], for which the IC50 in assay [1] (setting [2]) is 5.57 µM; in assay [1] (setting [3]), 5.6 µM. The “sPLA2 Inhibition (IC50 µg/mL)” value at sPLA2 (Type V) (sPLA2-V, diheptanoyl thio-PC substrate, 25 °C, mean ± s.d.) is recorded as “did not elicit anti-sPLA2-V; also recorded: not active”. The “HA Inhibition (IC50 µg/mL)” value on hyaluronidase was “did not elicit anti-sPLA2-V and anti-hyaluronidase activities”. Turning to `O=c1c(O)c(-c2ccc(O)c(O)c2)oc2cc(O)cc(O)c12` [Quercetin, reference compound], the IC50 on sPLA2 (Type V) (sPLA2-V, diheptanoyl thio-PC substrate, 25 °C, mean ± s.d., read-out: sPLA2 Inhibition (IC50 µg/mL) (converted)) was 77.7 µM. Take `CCOC(=O)c1cc(O)c(O)c(O)c1` [Ethyl gallate]: in assay [1] (soybean 15-LOX, linoleic acid substrate, borate buffer pH 8.75, 37 °C, mean ± s.d., read-out: LOX Inhibition (IC50 µg/mL) (converted)), the IC50 is 329 µM.
